Reference: patent US11878972B2, “Treatment of neurological disorders” (TORQUR AG, priority 2016, dated 2024)
One block for each molecule: values may come before it.

What was measured:
[1] = system: S6 phosphorylation (S235/236); test: mTOR signaling in brain samples of pilocarpine pre-treated and naïve mice (western blot); type: in vivo, mouse; conditions: for decrease of S6 phosphorylation (S235/236) versus control: brain, 3 hours after single oral dose: Cpd. 3 40 mg/kg, Cpd. 8 25 mg/kg, everolimus 5 mg/kg
Description: A ramping-up dosing protocol was used which has the advantage that pilocarpine can be individually applied according to the susceptibility of each mouse. Pilocarpine (Sigma-Aldrich, Germany) was administered to female NMRI mice intraperitoneally at a dose of 100 mg/kg (Pilo-SE group). […] To reduce peripheral side effects of pilocarpine, methylscopolamine (Sigma-Aldrich, Germany) was administered 30 minutes prior to the first injection of pilocarpine. Animals were continuously monitored and duration of convulsive SE was registered [referred to Racine's scale. SE onset was defined as continuous ongoing seizure activity following occurrence of one or two generalized tonic-clonic seizures [stage 4 or 5 on the Racine scale]. SE was characterized by head nodding in an upright (sitting) body position, Straub tail, and slight to moderate convulsions of forelimbs, sometimes interrupted by further generalized tonic-clonic seizures. In order to reduce mortality, SE was terminated by diazepam (10 mg/kg i.p.; diazepam-ratiopharm 10, injection solution) 90 min after SE onset. […] In the sham-SE group mice were treated with the same treatment scheme as the pilo-SE group but pilocarpine was replaced by 0.9% sodium chloride solution. The mortality in the pilo-SE model in mice is relatively high (overall about 50%) and can vary markedly between experimental groups/days. Therefore we had to start with a large number of mice for SE induction in order to reliably obtain a group size of 20-22 animals for the MEST.
Brain samples from pilocarpine treated mice and untreated mice were snap frozen and tissue was lysed in buffer containing 25 mM Tris-HCl, pH 8, 50 mM NaCl, 0.5% (w/v) sodium deoxycholate (DOC), and 0.5% (w/v) Triton X-100 and supplemented with complete protease inhibitor (Roche, Mannheim, Germany) and Phosphostop (NEB, USA). Disruption of cell lysates was performed by drawing up the cell suspension twenty times into a syringe with a small gauge needle (21 G) on ice. Protein concentrations in the lysates were determined by using the Pierce BCA Protein Assay kit (Thermo Scientific, Bonn, Germany) according to the manufacturer's instructions. […] Membranes were incubated with primary antibodies anti S6 1:1000, anti S6 Phospho Serin (240/244) 1:1000, anti S6 Phospho Serin (235/236) 1:2000 (NEB) and anti-Actin 1:100 (Sigma-Aldrich) for 1 h in 2% milk in PBST at room temperature (RT) and washed three times for 10 min in PBS-T. Secondary antibodies anti-rabbit-HRP 1:1000 (Dako, Hamburg, Germany) were incubated for 1 h in 2% milk in PBST at RT and washed three times for 10 min in PBST. Proteins were detected by enhanced chemiluminescence using SuperSignal West Femto Chemiluminescent Substrate (Thermo Scientific) and the ChemiDoc system (Bio-Rad, Munich, Germany) with QuantityOne software (Bio-Rad) according to the manufacturer's protocol. Relative protein expressions were quantified densitometrically with QuantityOne (Bio-Rad) software and calculated by normalization to the reference signals of actin with GraphPad Prism software (GraphPad, San Diego, CA, USA).
Pilocarpine pre-treated and naïve mice were treated with a single oral dose of Cpd. 3 (40 mg/kg), Cpd. 8 (25 mg/kg), everolimus (5 mg/kg) or vehicle. 5 mice per group were utilized and sacrificed after 3 hours.

[2] = system: female NMRI mice, nonepileptic (sham-SE) and epileptic (pilo-SE); test: Maximal electroshock seizure threshold test (MEST); type: in vivo, mouse; conditions: pretreatment 3 h
Description: A total of 166 adult female NMRI mice were used obtained from Charles River (Sulzfeld, Germany) at a weight range of 21-25 g (mice). Animals were kept under the following conditions: Housing: Animals were housed in groups of max. 8 mice under controlled conditions (temperature: 22±1° C.; humidity: 50% 60%/), under a 12-h light-dark cycle (lights on at 6:00 a.m.). Feeding: Standard laboratory chow (Altromin 1324 standard diet, Altromin Spezialfutter GmbH, Lage, Germany) was provided ad libitum. Drinking water: Tap water was provided ad libitum.
The MEST determines a population seizure threshold in groups of ˜20 animals and not the threshold for an individual animal. In the present study, the MEST was determined by a staircase procedure as previously described. A stimulator (BMT Medizintechnik, Berlin, Germany) that delivered a constant current (adjustable from 1-200 mA regardless of the impedance of the animal) with sinusoidal pulses (50/sec) for 0.2 sec was used.
Current administration was performed via bilateral transcorneal stimulation (using copper electrodes). Before transcorneal stimulation, a drop of tetracaine solution (2%) was administered to the eyes of the mouse for local anesthesia. Two minutes later, the mouse was restrained by hand to press the copper electrodes on both corneas while the stimulus was applied by stepping on a foot pedal switch connected with the stimulator. Electrodes were covered with soft leather and soaked with saline before each current application. […] The first stimulation was started with a current near to the control threshold.
3 (HCl): 40/100 mg in 10 ml (Suspension; 5% PEG 400 and 2% Tween 80, HPBCD (10%6)) • Cpd. 8 (HCl): 12.5/25 mg in 10 ml (5% PEG 400 and 2% Tween 80, HPBCD (10%))
Statistical analysis were calculated using Student's t-test. All tests were used two-sided; a P<0.05 was considered significant.
We performed no special tests for the determination of adverse effects. Mice were observed about 30 min after injection in their home cages for obvious sedation or reduction of wellbeing. Five minutes before electrical stimulation mice were again observed in their home cages and two minutes before stimulation during handling procedure for treatment with local anaesthesia. Every obvious variation from normal behavior was noted. Only phenobarbital induced noticeable sedation which lasted for more than 60 min. All other test drugs (including vehicle solutions) were tolerated without any obvious adverse effects.

[3] = molecular target: T1, N-terminally GST-tagged mTOR (truncated version: amino acids 1360-2549) (Homo sapiens, UniProt P42345); test: In vitro mTOR binding assay (LanthaScreen TR-FRET); conditions: 3 nM GST-mTOR, 10 nM Tracer 314, 30 min at RT
T1 construct: truncated version: amino acids 1360-2549; purchased Life Technologies PR8683B

[4] = system: pPKB S473 in A2058 cells; test: In-cell Western blot, pPKB S473; type: cell-based; conditions: Homo sapiens, treated for 1 hour, normalized to α-tubulin
[5] = system: pS6 S235/S236 in A2058 cells; test: In-cell Western blot, pS6 S235/S236; type: cell-based; conditions: Homo sapiens, treated for 1 hour, normalized to α-tubulin

T1 sequence (P42345 1360-2549): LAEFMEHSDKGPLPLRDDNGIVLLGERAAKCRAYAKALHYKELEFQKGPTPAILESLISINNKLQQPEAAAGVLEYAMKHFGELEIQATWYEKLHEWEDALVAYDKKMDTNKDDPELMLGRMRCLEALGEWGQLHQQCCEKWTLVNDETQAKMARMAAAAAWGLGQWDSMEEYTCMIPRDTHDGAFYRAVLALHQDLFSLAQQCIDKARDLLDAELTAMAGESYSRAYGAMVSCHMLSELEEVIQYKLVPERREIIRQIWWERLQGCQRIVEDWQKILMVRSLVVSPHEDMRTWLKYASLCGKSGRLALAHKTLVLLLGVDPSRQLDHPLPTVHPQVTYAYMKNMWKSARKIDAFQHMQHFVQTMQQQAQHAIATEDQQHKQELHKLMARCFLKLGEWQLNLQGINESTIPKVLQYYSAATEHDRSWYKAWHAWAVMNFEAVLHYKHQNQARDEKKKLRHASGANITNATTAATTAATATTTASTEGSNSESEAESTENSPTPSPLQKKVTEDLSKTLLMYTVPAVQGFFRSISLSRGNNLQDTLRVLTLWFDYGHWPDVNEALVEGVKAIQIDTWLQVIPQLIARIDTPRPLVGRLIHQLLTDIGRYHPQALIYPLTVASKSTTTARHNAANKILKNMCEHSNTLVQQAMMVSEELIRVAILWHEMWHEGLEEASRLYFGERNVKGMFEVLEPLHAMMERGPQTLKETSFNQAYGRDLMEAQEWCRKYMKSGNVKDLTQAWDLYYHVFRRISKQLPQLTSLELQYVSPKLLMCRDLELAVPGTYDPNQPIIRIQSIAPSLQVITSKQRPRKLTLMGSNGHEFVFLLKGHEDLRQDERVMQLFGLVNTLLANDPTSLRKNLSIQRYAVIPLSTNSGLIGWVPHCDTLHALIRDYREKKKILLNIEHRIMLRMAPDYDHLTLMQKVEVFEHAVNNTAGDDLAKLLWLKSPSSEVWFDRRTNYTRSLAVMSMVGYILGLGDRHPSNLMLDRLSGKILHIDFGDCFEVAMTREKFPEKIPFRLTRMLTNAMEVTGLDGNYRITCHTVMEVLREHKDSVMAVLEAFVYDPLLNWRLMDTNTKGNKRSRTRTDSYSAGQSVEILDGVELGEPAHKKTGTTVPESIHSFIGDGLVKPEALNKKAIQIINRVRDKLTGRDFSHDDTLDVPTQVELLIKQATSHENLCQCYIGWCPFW

SMILES: CO[C@H]1C[C@@H]2CC[C@@H](C)[C@@](O)(O2)C(=O)C(=O)N2CCCC[C@H]2C(=O)O[C@H]([C@H](C)C[C@@H]2CC[C@@H](OCCO)[C@H](OC)C2)CC(=O)[C@H](C)/C=C(\C)[C@@H](O)[C@@H](OC)C(=O)[C@H](C)C[C@H](C)/C=C/C=C/C=C/1C [everolimus, reference compound]
- decrease of S6 phosphorylation (S235/236) versus control ([1]; epileptic (pilocarpine pre-treated) mice): No significant changes
- S6 phosphorylation / mTOR signaling in brain (FIG. 3B) ([1]; epileptic/pilocarpine pre-treated and naïve mice, single oral dose): did not show significant mTOR signaling inhibition in brain
- decrease of S6 phosphorylation (S235/236) versus control ([1]; naïve mice): No significant changes
- Threshold difference between nonepileptic and epileptic ([2]; 5 mg/kg everolimus p.o.): 20%
- Threshold difference between vehicle and drug threshold, epileptic ([2]; 5 mg/kg everolimus p.o.): 16%
- Threshold difference between vehicle and drug threshold, nonepileptic ([2]; 5 mg/kg everolimus p.o.): 13%
- Threshold difference between nonepileptic and epileptic ([2]; 10 mg/kg everolimus p.o.): 1%
- Threshold difference between vehicle and drug threshold, nonepileptic ([2]; 10 mg/kg everolimus p.o.): 10%

- IC50 [3]: 394 nM
SMILES: Nc1ncc(-c2nc(N3CCOCC3)nc(N3CCSCC3)n2)c(C(F)(F)F)n1

- IC50 [3]: 2830 nM
SMILES: Nc1ncc(-c2nc(N3CCNCC3)nc(N3CCOCC3)n2)c(C(F)(F)F)n1

- IC50 [3]: 796 nM
SMILES: Nc1cc(C(F)(F)F)c(-c2nc(N3CCNCC3)nc(N3CCOCC3)n2)cn1

- IC50 [3]: 118 nM
SMILES: Nc1cc(C(F)(F)F)c(-c2nc(N3CCOCC3)nc(N3CCSCC3)n2)cn1

SMILES: C[C@H]1COCCN1c1nc(-c2cnc(N)nc2C(F)F)cc(N2CCOCC2)n1 [Compound 32, (S)-4′-(difluoromethyl)-2-(3-methylmorpholino)-6-morpholino-[4,5′-bipyrimidin]-2′-amine]
- IC50 [4]: 100 nM
- IC50 [5]: 387 nM

SMILES: C[C@@H]1COCCN1c1nc(-c2cnc(N)cc2C(F)F)nc(N2[C@@H](C)COC[C@@H]2C)n1 [Compound 79, 4-(difluoromethyl)-5-[4-[(3S,5S)-3,5-dimethylmorpholin-4-yl]-6-[(3R)-3-methylmorpholin-4-yl]-1,3,5-triazin-2-yl]pyridin-2-amine]
- IC50 ([4]; A2058, 1 h): 200 nM
- IC50 ([5]; A2058, 1 h): 136 nM
